Measurements taken from PMC10952535, “The differential binding and biological efficacy of auxin herbicides” (Pest Management Science, 2022).

Key:
[1] = target: T1, AtAFB2 (Arabidopsis thaliana, UniProt Q9LW29); assay: SPR relative binding (co-receptor complex formation with Aux/IAA7 degron), AtAFB2; details: 50 μM compound
T1 construct: His10 (N, cleaved yes); eGFP (N, cleaved yes); FLAG (N, cleaved yes); made in house; host or cells: baculovirus; Trichoplusia ni Hi5 cells (virus generated in Sf9)
T1 sequence (Q9LW29 whole entry, other chains not shown): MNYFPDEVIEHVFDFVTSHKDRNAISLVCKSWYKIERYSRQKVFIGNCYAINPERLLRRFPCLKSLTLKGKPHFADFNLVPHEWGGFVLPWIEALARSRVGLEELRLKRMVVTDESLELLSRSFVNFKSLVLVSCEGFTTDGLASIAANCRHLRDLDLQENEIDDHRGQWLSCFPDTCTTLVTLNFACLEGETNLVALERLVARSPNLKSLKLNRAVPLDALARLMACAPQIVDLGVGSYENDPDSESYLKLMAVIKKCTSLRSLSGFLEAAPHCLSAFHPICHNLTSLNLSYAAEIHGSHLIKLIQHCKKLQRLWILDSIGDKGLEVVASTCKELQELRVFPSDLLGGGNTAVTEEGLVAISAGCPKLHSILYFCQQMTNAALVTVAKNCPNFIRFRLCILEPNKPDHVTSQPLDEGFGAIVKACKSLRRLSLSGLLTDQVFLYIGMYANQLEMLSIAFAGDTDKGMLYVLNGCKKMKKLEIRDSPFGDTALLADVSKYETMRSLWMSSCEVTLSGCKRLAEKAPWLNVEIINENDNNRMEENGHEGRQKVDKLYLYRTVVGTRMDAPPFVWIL
T1 sequence (Q39255 whole entry partner, other chains not shown): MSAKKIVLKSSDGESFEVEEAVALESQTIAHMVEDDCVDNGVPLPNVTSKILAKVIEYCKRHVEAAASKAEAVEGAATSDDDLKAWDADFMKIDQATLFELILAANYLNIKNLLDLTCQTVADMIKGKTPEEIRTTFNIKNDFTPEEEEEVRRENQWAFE
Protocol: (§1) Auxin binding assays using surface plasmon resonance (SPR) were performed on a Biacore 2000 as described previously.[3], [18], [23] Protein was stored on ice and protein concentrations were assayed by A280 nm measurement (nanodrop, Thermo Scientific). Briefly, AtAux/IAA7 degron peptide was immobilized on streptavidin‐coated SPR chips, and binding was measured in the presence of IAA or auxin analogue by recruitment of the TIR1/AFB protein from solution as the co‐receptor complex formed on the chip. Kinetic analyses were performed by single cycle kinetics on a Biacore T200 (Cytiva Life Sciences), titrating compounds against a fixed concentration of TIR1 before injection. The degron peptide density on the chips was controlled so that R max < 300 Response UNits (RU).

[2] = target: T2, AtAFB5 (Arabidopsis thaliana, UniProt Q9LTX2); assay: SPR relative binding (co-receptor complex formation with Aux/IAA7 degron), AtAFB5; details: 50 μM compound
T2 construct: His10 (N, cleaved yes); eGFP (N, cleaved yes); FLAG (N, cleaved yes); made in house; host or cells: baculovirus; Trichoplusia ni Hi5 cells (virus generated in Sf9)
T2 sequence (Q9LTX2 whole entry, other chains not shown): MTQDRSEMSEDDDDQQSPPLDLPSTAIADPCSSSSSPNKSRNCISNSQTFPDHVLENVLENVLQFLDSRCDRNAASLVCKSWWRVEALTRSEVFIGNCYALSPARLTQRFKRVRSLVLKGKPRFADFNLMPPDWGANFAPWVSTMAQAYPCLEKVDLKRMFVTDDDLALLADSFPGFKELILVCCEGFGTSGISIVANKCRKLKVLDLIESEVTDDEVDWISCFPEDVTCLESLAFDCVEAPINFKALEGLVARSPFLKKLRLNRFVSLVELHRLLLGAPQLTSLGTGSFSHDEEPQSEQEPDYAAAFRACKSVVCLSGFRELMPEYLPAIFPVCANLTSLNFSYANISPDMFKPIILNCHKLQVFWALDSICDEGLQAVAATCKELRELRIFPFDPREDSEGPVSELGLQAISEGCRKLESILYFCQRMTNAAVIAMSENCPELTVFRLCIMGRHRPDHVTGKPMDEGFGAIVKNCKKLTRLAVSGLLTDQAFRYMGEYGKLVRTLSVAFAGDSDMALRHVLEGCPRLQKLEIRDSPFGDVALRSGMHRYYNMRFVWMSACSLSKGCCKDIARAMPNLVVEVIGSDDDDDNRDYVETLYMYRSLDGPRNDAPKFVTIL
T2 sequence (Q39255 whole entry partner, other chains not shown): as the sequence (Q39255 whole entry partner, other chains not shown) above
Protocol: as §1

[3] = target: T2, AtAFB5; assay: biochemical; format: binding
Protocol: as §1

[4] = target: T3, AtTIR1 (Arabidopsis thaliana, UniProt Q570C0); assay: biochemical; format: binding
T3 construct: His10 (N, cleaved yes); eGFP (N, cleaved yes); FLAG (N, cleaved yes); made in house; host or cells: baculovirus; Trichoplusia ni Hi5 cells (virus generated in Sf9)
T3 sequence (Q570C0 whole entry, other chains not shown): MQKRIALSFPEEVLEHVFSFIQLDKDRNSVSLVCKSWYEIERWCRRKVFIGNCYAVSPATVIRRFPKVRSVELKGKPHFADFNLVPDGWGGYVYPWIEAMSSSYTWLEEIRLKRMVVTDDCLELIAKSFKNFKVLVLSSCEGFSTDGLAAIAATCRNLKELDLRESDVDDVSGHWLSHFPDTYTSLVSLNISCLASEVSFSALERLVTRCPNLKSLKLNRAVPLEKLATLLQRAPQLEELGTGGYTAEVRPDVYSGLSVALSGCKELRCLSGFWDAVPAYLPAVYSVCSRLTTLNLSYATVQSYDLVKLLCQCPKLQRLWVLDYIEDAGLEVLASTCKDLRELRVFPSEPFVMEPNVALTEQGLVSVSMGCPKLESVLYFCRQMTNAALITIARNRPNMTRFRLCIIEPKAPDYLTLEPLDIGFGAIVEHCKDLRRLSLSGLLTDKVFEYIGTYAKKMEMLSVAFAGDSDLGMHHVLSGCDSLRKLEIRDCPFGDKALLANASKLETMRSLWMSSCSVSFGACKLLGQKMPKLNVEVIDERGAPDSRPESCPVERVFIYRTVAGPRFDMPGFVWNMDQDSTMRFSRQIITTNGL
T3 sequence (Q39255 whole entry partner, other chains not shown): as the sequence (Q39255 whole entry partner, other chains not shown) above
Protocol: as §1

[5] = tested on: Arabidopsis thaliana afb5‐1 mutant line; format: in vivo; details: for GR50 (DW % of NT): dry weight at 14 DAT; for Resistance ratio (afb5‐1 vs WT), DW: ratio of dry weight GR50 values, foliar application
Protocol: (§2) Bioassays were carried out with the model species Arabidopsis thaliana. The wild type (WT) Col‐0 line was compared to an afb5‐1 mutant line in a Col‐0 background containing a missense mutation of R609K.[11] A. thaliana seeds were sown on Metro‐mix 360 potting mix (Sungro Horticulture) supplemented with vermiculite and stratified for 3 days at 4 °C in the dark. Flats were moved to a growth chamber (as above) and a plastic lid was placed on the flat. On germination, the lid was removed. After 2 weeks in the growth chamber, seedlings were transplanted into 3‐in. pots with Metro‐mix 360 potting mix and moved to a greenhouse. The greenhouse was maintained at a day/night temperature of 23/22 °C and supplemented with light to complete a 16 h photoperiod. Plants were allowed to recover from transplanting for 1 week prior to applications. A. thaliana seedlings were sprayed with test compounds at five rates with four replications. Tests included nontreated and solvent check controls. Individual compound doses varied and were based on plate test data or anecdotal potency. Compounds were formulated as technical material and were initially dissolved in 1 part 97:3 (v/v) acetone: dimethylsufoxide (DMSO) followed by 5 parts 1.5% (v/v) Agridex crop oil concentrate in distilled water to give a final concentration of 1.25% (v/v) Agridex. Formulated compounds were sprayed at a volume of 187 L ha^−1 at a spray height of 43 cm above the plants with an overhead Mandel track sprayer set with 8002 E Tee jet nozzle. Plants were treated at rosette stage just prior to or at initiation of bolting. After spray application, plants were allowed to dry then moved back to the greenhouse. Plants were grown in the greenhouse (same conditions as above) for 2 weeks until harvest. Visual injury/growth reduction observations were made at 7 and 14 days after treatment (DAT) and scored where 0% = no growth reduction and 100% = complete growth reduction or plant death. At 14 DAT the plants were harvested and dried to collect dry weight (DW) biomass.
(§3) The data collected in the foliar application of compounds generated a measure of sensitivity or dose response. The data was analyzed by regression in JMP 10.0 and fit to a nonlinear exponential three parameter fit model:
(§4) where a is the asymptote, b is the scale and c is the rate of growth. The model was used to determine the herbicidal dose that caused 50% reduction in growth (GR50). GR50 values were compared between mutant and WT to give an indication of fold resistance over WT (Table 3). A log‐logistic model[24] was also used to fit the data and gave similar GR50 values with greater standard errors without changing the pattern of responsiveness.

[6] = tested on: Arabidopsis thaliana afb5‐1 seedlings; assay: Root growth inhibition bioassay, afb5‐1 mutant; format: in vivo; details: afb5‐1 vs WT dose-response, 8 days
Protocol: (§5) A. thaliana seed was surface sterilized in 10 mL of 50% bleach and two drops of Tween‐20 for 12 min and rinsed six times with sterile water. Sterile growth media consisted of half‐strength Murashige and Skoog salts supplemented with 0.4% agar and 0.8% sucrose. In a laminar flow hood, 8 mL of liquid media was transferred to sterile test‐tubes placed in a heat block to maintain media in a liquid state. Compounds were previously diluted in 50/50 DMSO/water to a known molar concentration. A 50‐μL aliquot of diluted compound was added to each tube to give a specified final concentration, normally 10, 1, 0.1, 0.01 or 0.001 μM. A single tube was treated with solvent only as a control. Test compounds were mixed into the media by pipetting up and down three times, then 6 mL of media with test compound was added to one well in a six‐well plate, working from low‐to‐high concentration, and allowed to solidify in the laminar flow hood. Approximately 15 sterilized seeds were placed on the solidified surface and the remaining 2 mL of liquid media was added to cover and disperse seeds. Plates were sealed with paraffin and moved to a Conviron growth chamber set to 60% humidity, 25 °C and light intensity 100 μE m^2 s^−1 with a 16 h photoperiod. After 8 days primary root measurements of five random plants were taken by removing plants from media and measuring with a ruler. Treatments were compared against the solvent control to determine percentage root growth inhibition. Each experiment was run twice and averages were combined for analysis.

[7] = tested on: Arabidopsis thaliana Col‐0 seedlings; assay: Root growth inhibition bioassay, wild type; format: in vivo; details: 8 days, up to 10 μM
Protocol: as §5, with “Treatments were compared against the solvent control to determine percentage root growth inhibition. Each experiment was run twice and averages were combined for analysis.” left out

[8] = tested on: Arabidopsis thaliana wild type (WT) Col‐0; assay: Foliar efficacy bioassay, wild type; format: in vivo; details: foliar application; for GR50 (DW % of NT): dry weight at 14 DAT
Protocol: as §2, §3, §4

[9] = target: T3, AtTIR1; assay: SPR relative binding (co-receptor complex formation with Aux/IAA7 degron), AtTIR1; details: 50 μM compound
Protocol: as §1

Structure (SMILES) | Relative binding (in words) ([1]; compared to IAA) | Relative binding (in words) ([2]; compared to IAA) | Kd [3] [µM] | Kd [4] [µM] | GR50 (DW % of NT) ([5]; afb5‐1, foliar application) [g ai ha^−1] | Resistance ratio (afb5‐1 vs WT), DW [5] | Resistance of afb5‐1 in root growth inhibition (in words) [6] | Primary root growth inhibition (in words) [7] | GR50 (DW % of NT) [8] [g ai ha^−1] | GR50 (visual injury) ([8]; visual injury) [g ai ha^−1] | Relative binding (in words) ([9]; compared to IAA) | % of IAA binding ([1]; normalized to IAA = 100%) [%] | % of IAA binding ([2]; normalized to IAA = 100%) [%] | Foliar phytotoxicity / resistance (in words) ([5]; afb5‐1, foliar application) | Foliar phytotoxicity (in words) [8] | % of IAA binding ([9]; normalized to IAA = 100%) [%]
Nc1c(Cl)c(Cl)nc(C(=O)O)c1Cl [Picloram] | relatively low binding | relatively low binding | 107 | 319 | 996 | 72.7 | considerable resistance | low level of phytotoxicity | 13.7 | 202 | relatively low binding | – | – | – | – | –
O=C(O)c1c(Cl)ccc2cc(Cl)cnc12 [Quinclorac] | – | – | – | – | 1002 | 1 | No resistance | very low root growth inhibition | 1015 | – | – | < 5 | < 5 | did not provide much phytotoxicity | did not provide much phytotoxicity | < 5
